This assay concerns the target JAK3 enzyme (Homo sapiens (Human), UniProt P52333). The assay is described as follows: JAK Caliper Enzyme Assay at 4 μM or 1 mM ATP. The class given is biochemical. Here is the method:
JAK Caliper Enzyme Assay at […] or 1 mM ATP
Test article was solubilized in dimethyl sulfoxide (DMSO) to a stock concentration of 30 mM. An 11-point half log dilution series was created in DMSO with a top concentration of 600 μM. […] The compound plates were diluted 1 to 60 resulting in a top final assay compound concentration of 10 μM and a 2% DMSO concentration.
Test article and assay controls were added to a 384-well plate. Reaction mixtures contained 20 mM HEPES, pH 7.4, 10 mM magnesium chloride, 0.01% bovine serum albumin (BSA), 0.0005% Tween […] or 1 mM ATP and […] peptide substrate. […] The assays were initiated by the addition 1 nM JAK3 enzyme and were incubated at room temperature 75 minutes for JAK3. Enzyme concentrations and incubation times were optimized for each new enzyme preps and were modified slightly over time to ensure 20%-30% phosphorylation. The assays were stopped with a final concentration of 10 mM EDTA, 0.1% Coating Reagent and 100 mM HEPES, pH=7.4. The assay plates were placed on a Caliper Life Science Lab Chip 3000 (LC3000) instrument, and each well was sampled using appropriate separation conditions to measure the unphosphorylated and phosphorylated peptide.

Setting [1] is: read-out: JAK3 (4 μM ATP) IC50, 4 μM ATP.
Where [2] appears, read: read-out: JAK3 (1 mM ATP) IC50, 1 mM ATP.

Like-named read-outs stand apart in the source and are kept apart here.

Chain of JAK3 enzyme (P52333 whole entry, species assumed): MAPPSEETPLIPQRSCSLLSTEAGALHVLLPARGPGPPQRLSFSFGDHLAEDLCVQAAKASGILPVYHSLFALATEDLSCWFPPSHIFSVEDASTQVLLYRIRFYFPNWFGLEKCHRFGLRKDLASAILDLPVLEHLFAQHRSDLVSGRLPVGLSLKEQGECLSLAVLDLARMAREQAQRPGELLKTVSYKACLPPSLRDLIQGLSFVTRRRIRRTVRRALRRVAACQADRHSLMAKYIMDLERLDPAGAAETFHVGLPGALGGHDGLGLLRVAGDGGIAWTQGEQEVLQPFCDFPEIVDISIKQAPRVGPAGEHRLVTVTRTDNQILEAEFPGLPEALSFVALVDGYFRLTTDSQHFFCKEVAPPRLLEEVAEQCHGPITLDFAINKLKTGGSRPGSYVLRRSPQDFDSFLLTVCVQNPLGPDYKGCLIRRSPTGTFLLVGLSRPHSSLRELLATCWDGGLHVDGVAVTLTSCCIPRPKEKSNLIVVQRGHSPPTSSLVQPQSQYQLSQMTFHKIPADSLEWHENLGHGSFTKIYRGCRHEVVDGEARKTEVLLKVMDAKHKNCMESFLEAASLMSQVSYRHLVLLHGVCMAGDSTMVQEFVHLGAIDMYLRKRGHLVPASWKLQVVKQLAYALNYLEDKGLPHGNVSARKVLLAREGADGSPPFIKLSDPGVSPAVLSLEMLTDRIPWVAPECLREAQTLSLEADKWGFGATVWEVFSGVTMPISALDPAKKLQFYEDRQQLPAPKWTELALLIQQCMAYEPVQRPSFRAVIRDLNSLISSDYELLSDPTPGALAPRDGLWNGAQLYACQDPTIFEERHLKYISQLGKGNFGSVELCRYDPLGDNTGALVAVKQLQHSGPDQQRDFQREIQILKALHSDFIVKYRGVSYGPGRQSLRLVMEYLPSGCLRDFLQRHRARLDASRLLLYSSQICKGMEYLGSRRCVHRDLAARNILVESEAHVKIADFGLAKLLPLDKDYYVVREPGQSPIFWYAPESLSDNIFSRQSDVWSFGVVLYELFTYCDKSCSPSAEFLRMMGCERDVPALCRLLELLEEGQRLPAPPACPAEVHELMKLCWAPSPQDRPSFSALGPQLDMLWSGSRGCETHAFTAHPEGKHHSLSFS

Regarding `C=CC(=O)N1C[C@@H](Nc2ncnc3[nH]ccc23)[C@@H]2CC[C@H]1C2` [Example 126, 1-((1S,4S,5R)-4-(7H-pyrrolo[2,3-d]pyrimidin-4-ylamino)-2-azabicyclo[3.2.1]octan-2-yl)prop-2-en-1-one], the IC50 is 602 nM under setting [1] and greater than 10000 nM under setting [2]. For `C=CC(=O)N1C[C@H](Nc2ncnc3[nH]ccc23)[C@H]2CC[C@@H]1C2` [Example 127, 1-((1R,4R,5S)-4-(7H-pyrrolo[2,3-d]pyrimidin-4-ylamino)-2-azabicyclo[3.2.1]octan-2-yl)prop-2-en-1-one] the same measures were 190 nM and greater than 10000 nM.

Consider `C=CC(=O)N1CC[C@@H](C)[C@@H](N(C)c2ncnc3[nH]ccc23)C1` [Example 130, 1-{(3R,4R)-4-Methyl-3-[methyl(7H-pyrrolo[2,3-d]pyrimidin-4-yl)amino]piperidin-1-yl}prop-2-en-1-one], for which the IC50 under setting [1] came out at 75.2 nM. In the case of `C=CC(=O)N1CC[C@@H]2CN(c3ncnc4[nH]ccc34)[C@@H]2C1` [Example 131, 1-[(1S,6R)-8-(7H-Pyrrolo[2,3-d]pyrimidin-4-yl)-3,8-diazabicyclo[4.2.0]oct-3-yl]prop-2-en-1-one], the 50% inhibitory concentration (IC50) under setting [1] came to 988 nM. In the case of `C=CC(=O)N1CC[C@H]2CN(c3ncnc4[nH]ccc34)[C@H]2C1` [Example 134, 1-[(1R,6S)-8-(7H-Pyrrolo[2,3-d]pyrimidin-4-yl)-3,8-diazabicyclo[4.2.0]oct-3-yl]prop-2-en-1-one], the half-inhibitory concentration (IC50) under setting [1] stood at 71.2 nM.

As for `C/C=C/C(=O)N1CCC[C@@H](N(C)c2ncnc3[nH]cc(CCOC)c23)C1` [Example 135, (2E)-1-[(3R)-3-{[5-(2-Methoxyethyl)-7H-pyrrolo[2,3-d]pyrimidin-4-yl](methyl)amino}-piperidin-1-yl]but-2-en-1-one], under setting [1], the 50% inhibitory concentration (IC50) is greater than 10000 nM.

Consider `C=CC(=O)N1CCC[C@@H](N(C)c2ncnc3[nH]cc(CCOC)c23)C1` [Example 136, 1-[(3R)-3-{[5-(2-Methoxyethyl)-7H-pyrrolo[2,3-d]pyrimidin-4-yl](methyl)amino]piper-idin-1-yl]prop-2-en-1-one], for which, under setting [1], the IC50 stood at 238 nM. On the same count and under the same terms, the value for `C=CC(=O)N1CCC[C@@H](Nc2ncnc3[nH]cc(Cc4ccc(O)cc4)c23)C1` [Example 137, 1-[(3R)-3-{[5-(4-Hydroxybenzyl)-7H-pyrrolo[2,3-d]pyrimidin-4-yl]amino}piperidin-1-yl]prop-2-en-1-one] was 0.3 nM; that for `C/C=C/C(=O)N1CCC[C@@H](Nc2ncnc3[nH]cc(Cc4ccc(O)cc4)c23)C1` [Example 138, (2E)-1-[(3R)-3-{[5-(4-Hydroxybenzyl)-7H-pyrrolo[2,3-d]pyrimidin-4-yl]amino}piperidin-1-yl]but-2-en-1-one] was 110 nM; that for `C=C(C)C(=O)N1CCC[C@@H](Nc2ncnc3[nH]cc(Cc4ccc(O)cc4)c23)C1` [Example 139, 1-[(3R)-3-{[5-(4-hydroxybenzyl)-7H-pyrrolo[2,3-d]pyrimidin-4-yl]amino}piperidin-1-yl]-2-methylprop-2-en-1-one] was 83.1 nM.

In the case of `C=CC(=O)N1CCC[C@@H](Nc2ncnc3[nH]cc(C(=O)N(C)C)c23)C1` [Example 142, 4-{[(3R)-1-acryloylpiperidin-3-yl]amino}-N,N-dimethyl-7H-pyrrolo[2,3-d]pyrimidine-5-carboxamide], the IC50 under setting [1] was determined as 225 nM.

`C=CC(=O)N1CCC[C@@H](Nc2ncnc3[nH]cc(C(=O)NCCO)c23)C1` [Example 143, 4-{[(3R)-1-acryloylpiperidin-3-yl]amino}-N-(2-hydroxyethyl)-7H-pyrrolo[2,3-d]pyrimidine-5-carboxamide]: the IC50 under setting [1] was found to be 144 nM. On the same count and under the same terms, the value for `C=CC(=O)N1CCC[C@@H](Nc2ncnc3[nH]cc(C(=O)NCC)c23)C1` [Example 144, 4-{[(3R)-1-acryloylpiperidin-3-yl]amino}-N-ethyl-7H-pyrrolo[2,3-d]pyrimidine-5-carboxamide] was 139 nM; that for `C=CC(=O)N1CCC[C@@H](Nc2ncnc3[nH]cc(C(=O)NC)c23)C1` [Example 145, 4-{[(3R)-1-acryloylpiperidin-3-yl]amino}-N-methyl-7H-pyrrolo[2,3-d]pyrimidine-5-carboxamide] was 112 nM; that for `C=CC(=O)N1CCC[C@@H](Nc2ncnc3[nH]cc(C(=O)N4CCCC4)c23)C1` [Example 146, 1-[(3R)-3-{[5-(pyrrolidin-1-ylcarbonyl)-7H-pyrrolo[2,3-d]pyrimidin-4-yl]amino}pipendin-1-yl]prop-2-en-1-one] was 957 nM. For the compound `C/C=C/C(=O)N1CCC[C@@H](Nc2ncnc3[nH]cc(C(=O)N4CCCC4)c23)C1` [Example 147, (2E)-1-[(3R)-3-{[5-(pyrrolidin-1-ylcarbonyl)-7H-pyrrolo[2,3-d]pyrimidin-4-yl]amino}pipendin-1-yl]but-2-en-1-one], the IC50 under setting [1] was greater than 10000 nM.

Regarding `C/C=C/C(=O)N1CCC[C@@H](Nc2ncnc3[nH]cc(C(=O)NCCO)c23)C1` [Example 148, 4-({(3R)-1-[(2E)-but-2-enoyl]piperidin-3-yl}amino)-N-(2-hydroxyethyl)-7H-pyrrolo[2,3-d]pyrimidine-5-carboxamide], under setting [1], the IC50 was 6960 nM. The same measure, in the same setting: the value for `C/C=C/C(=O)N1CCC[C@@H](Nc2ncnc3[nH]cc(C(=O)NCCOC)c23)C1` [Example 149, 4-({(3R)-1-[(2E)-but-2-enoyl]piperidin-3-yl}amino)-N-(2-methoxyethyl)-7H-pyrrolo[2,3-d]pyrimidine-5-carboxamide] was greater than 10000 nM; that for `C=C(C)C(=O)N1CCC[C@@H](Nc2ncnc3[nH]cc(CCO)c23)C1` [Example 152, 1-[(3R)-3-{[5-(2-Hydroxyethyl)-7H-pyrrolo[2,3-d]pyrimidin-4-yl]amino}piperidin-1-yl]-2-methylprop-2-en-1-one] was 4240 nM. The same measure, in the same setting: as for `C=CC(=O)N1CCC[C@@H](Nc2c(C#N)cnc3[nH]ccc23)C1` [Example 156, 4-{[(3R)-1-Acryloylpiperidin-3-yl]amino}-1H-pyrrolo[2,3-b]pyridine-5-carbonitrile], the figure is 7.2 nM; as for `CN(C)C/C=C/C(=O)N1CCC[C@@H](Nc2ncnc3[nH]cc(CCC#N)c23)C1` [Example 157, 3-[4-({(3R)-1-[(2E)-4-(Dimethylamino)but-2-enoyl]piperidin-3-yl}amino)-7H-pyrrolo[2,3-d]pyrimidin-5-yl]propanenitrile], 1470 nM; as for `N#CCCc1c[nH]c2ncnc(N[C@@H]3CCCN(C(=O)/C=C/CO)C3)c12` [Example 158, 3-[4-({(3R)-1-[(2E)-4-Hydroxybut-2-enoyl]piperidin-3-yl}amino)-7H-pyrrolo[2,3-d]pyrimidin-5-yl]propanenitrile], greater than 10000 nM. On the same count and under the same terms, as for `C/C=C/C(=O)N1CCC[C@@H](Nc2ncnc3[nH]cc(CC(C)(C)O)c23)C1` [Example 159, (2E)-1-[(3R)-3-{[5-(2-Hydroxy-2-methylpropyl)-7H-pyrrolo[2,3-d]pyrimidin-4-yl]amino}piperidin-1-yl]but-2-en-1-one], the figure is greater than 10000 nM. With `C=CC(=O)N1C[C@H](Nc2ncnc3[nH]cc(C#N)c23)CC[C@@H]1C` [Example 163, 4-{[(3R,6S)-1-Acryloyl-6-methylpiperidin-3-yl]amino}-7H-pyrrolo[2,3-d]pyrimidine-5-carbonitrile], the IC50 worked out at 0.6 nM under setting [1] and 47.1 nM under setting [2].

Broadly, the IC50 is the concentration at which inhibition is half-maximal.

The record behind these values is patent US20250134869A1, “Pyrrolo[2,3-d]pyrimidinyl, Pyrrolo[2,3-b]pyrazinyl and Pyrrolo[2,3-d]pyridinyl Acryla-mides” (Pfizer Inc, priority 2021, published 2025).
